# Patent US10034886B2, “GLP-1 receptor modulators” (Celgene International II SÀRL, priority 2014, dated 2018)
# Molecular target: T1, GLP-1R (Homo sapiens, UniProt P43220)
# T1 construct: host or cells: GLP-1R CRE-bla CHO-K1 cells
# Test: EC20 GLP-1(9-36) PAM cAMP assay: dose response of compound in the presence of fixed concentration of GLP-1(9-36)
# Type: cell-based
# Settings: GLP-1R CRE-bla CHO-K1 cells, compound dose response with fixed concentration of GLP-1(9-36), read-out: EC20 GLP-1(9-36) PAM EC50
# Procedure, shortened: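 GLP-1R CRE-bla CHO-K1 cells treated 30 min at 37 °C with 12-point compound dose response plus fixed EC20 GLP-1(9-36), with IBMX, in HBSS/HEPES/0.1% BSA pH 7.4. Total cAMP measured by luminescent detection against standard curve; EC50 and Emax from non-linear regression.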
# T1 sequence (P43220 24-463): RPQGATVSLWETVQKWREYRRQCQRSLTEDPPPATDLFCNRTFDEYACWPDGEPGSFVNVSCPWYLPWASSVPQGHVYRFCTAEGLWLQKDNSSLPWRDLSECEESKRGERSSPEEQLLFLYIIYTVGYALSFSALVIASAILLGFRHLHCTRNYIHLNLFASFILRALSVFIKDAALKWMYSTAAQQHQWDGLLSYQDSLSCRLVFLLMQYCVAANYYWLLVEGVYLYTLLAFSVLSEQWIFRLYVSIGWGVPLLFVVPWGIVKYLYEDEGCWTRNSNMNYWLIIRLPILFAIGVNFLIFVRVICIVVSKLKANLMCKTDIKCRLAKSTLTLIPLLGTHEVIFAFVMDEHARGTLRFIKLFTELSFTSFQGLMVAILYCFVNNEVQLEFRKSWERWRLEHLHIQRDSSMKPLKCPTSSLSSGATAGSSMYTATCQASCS
# T1 sequence (P01275 100-127 partner limits assumed): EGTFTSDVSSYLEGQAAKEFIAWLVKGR
row,Structure (SMILES),EC50 [nM]
1,C[C@@H](NC(=O)[C@H](Cc1ccc(-c2ncc(-c3ccc(-c4ccc(Cl)cc4)cc3)cn2)cc1)NC(=O)c1ccc(C(C)(C)C)s1)C(=O)O [Compound 1315],< 800
2,CCC[C@H]1CC[C@H](C2CCN(c3cnc(-c4ccc(C[C@H](NC(=O)c5ccc(C(C)(C)C)s5)C(=O)NC(CCN)C(=O)O)cc4)nc3)CC2)CC1 (stereo partly drawn) [Compound 1471],< 800
3,C[C@@H](NC(=O)[C@H](Cc1ccc(-c2ncc(-c3ccc(C4CC4)cc3)cn2)cc1)NC(=O)c1ccc(C(C)(C)C)s1)C(=O)O [Compound 1306],800 to 2500
4,CC[C@H]1CC[C@H](c2ccc(-c3cnc(-c4ccc(C[C@H](NC(=O)c5ccc(S(C)(=O)=O)cc5)C(=O)O)cc4)nc3)cc2)CC1 [Compound 1379],< 800
5,COc1ccc(C(=O)N[C@@H](Cc2ccc(-c3ncc(-c4ccc(OCCCC(C)C)cc4)cn3)cc2)C(=O)N2CC(C(=O)O)C2)cc1 [Compound 1229],2500 to 5000
6,CC(C)(C)c1ccc(C(=O)N[C@@H](Cc2ccc(-c3ncc(N4CCC(C5CCCCC5)CC4)cn3)cc2)C(=O)N2CC(C(=O)O)C2)s1 [Compound 1431],< 800
7,CCC[C@H]1CC[C@H](C2CCN(c3cnc(-c4ccc(C[C@H](NC(=O)c5ccc(C(C)(C)C)nc5)C(=O)N5CC(C(=O)O)C5)cc4)nc3)CC2)CC1 [Compound 1531],< 800
8,CCCc1ccc(C2CN(c3cnc(-c4ccc(C[C@H](NC(=O)c5ccc(C(C)(C)C)s5)C(=O)N5CC(C(=O)O)C5)cc4)nc3)C2)cc1 [Compound 1502],2500 to 5000

# Same assay, conditions: dose response of compound in presence of fixed concentration of GLP-1(9-36), GLP-1R CRE-bla CHO-K1 cells, read-out: EC20 GLP-1(9-36) PAM EC50
row,Structure (SMILES),EC50 [nM]
1,CCCCCCCOc1ccc(-c2cnc(-c3ccc(C[C@H](NC(=O)c4cnn(C(C)(C)C)c4)C(=O)N4CCC[C@H]4C(=O)O)cc3)nc2)cc1 [Compound 1068],800 to 2500
2,CCCCOc1cc(-c2cnc(-c3ccc(C[C@H](NC(=O)c4ccc(C(C)(C)C)s4)C(=O)N[C@H](C)C(=O)O)cc3)nc2)cc(Cl)c1OC(C)C [Compound 1039],800 to 2500
3,CCCCCCCOc1ccc(-c2cnc(-c3ccc(C[C@H](NC(=O)c4ccc(CC)cc4)C(=O)NC(C(=O)O)C(O)c4ccccc4)cc3)nc2)cc1 (stereo partly drawn) [Compound 947],800 to 2500
4,C[C@@H](NC(=O)[C@H](Cc1ccc(-c2ncc(-c3ccc(OC(F)(F)F)c(OCC4CC4)c3)cn2)cc1)NC(=O)c1ccc(C(C)(C)C)s1)C(=O)O [Compound 1027],5000 to 10000
5,CCCCCCCOc1ccc(-c2cnc(-c3ccc(C[C@H](NC(=O)c4ccc(C(F)(F)F)s4)C(=O)NC(C(=O)O)C(O)c4ccccc4)cc3)nc2)cc1 (stereo partly drawn) [Compound 948],2500 to 5000
6,CC(C)(C)c1ccc(C(=O)N[C@@H](Cc2ccc(-c3ncc(-c4ccc(OC(F)(F)F)cc4)cn3)cc2)C(=O)NC(C(=O)O)C(O)c2ccccc2)s1 (stereo partly drawn) [Compound 927],2500 to 5000
7,CC(C)(C)c1ccc(-c2cnc(-c3ccc(C[C@H](NC(=O)c4ccc(C(C)(C)C)s4)C(=O)N4CC(C(=O)O)C4)cc3)nc2)cc1 [Compound 783],800 to 2500
8,CCCCCCCOc1ccc(-c2cnc(-c3ccc(C[C@H](NC(=O)c4ccc(C(C)(C)C)s4)C(=O)NC(Cc4ccc(Cl)cc4)C(=O)O)cc3)nc2)cc1 (stereo partly drawn) [Compound 615],5000 to 10000
9,CCCCCCCOc1ccc(-c2cnc(-c3ccc(C[C@H](NC(=O)c4cnn(C(C)(C)C)c4)C(=O)NC(C(=O)O)C(O)c4ccccc4)cc3)nc2)cc1 (stereo partly drawn) [Compound 954],800 to 2500
10,CCCCCCCOc1ccc(-c2cnc(-c3ccc(C[C@H](NC(=O)c4ccc(CCCC)cc4)C(=O)N[C@H](C)C(=O)O)cc3)nc2)cc1 [Compound 821],800 to 2500
11,CCCCCCCOc1ccc(-c2cnc(-c3ccc(C[C@H](NC(=O)c4ccc(C(C)(C)C)cc4)C(=O)N4C[C@H](O)C[C@H]4C(=O)O)cc3)nc2)cc1 [Compound 491],< 800
12,CCCCCCCOc1ccc(-c2cnc(-c3ccc(C[C@H](NC(=O)c4ccn(C(C)(C)C)c4)C(=O)N4CC[C@H](C(=O)O)C4)cc3)nc2)cc1 [Compound 1094],< 800
13,CCCCc1ccc(-c2cnc(-c3ccc(C[C@H](NC(=O)c4ccc(C(C)(C)C)cc4)C(=O)NCCC(=O)O)cc3)nc2)cc1 [Compound 677],2500 to 5000
14,"CCCCCCCOc1ccc(-c2cnc(-c3ccc(C[C@@H](NC(=O)c4ccc(C(C)(C)C)cc4)C(=O)O)cc3)nc2)cc1 [Compound 191, (R)-2-(4-(tert-butyl)benzamido)-3-(4-(5-(4-(heptyloxy)phenyl)pyrimidin-2-yl)phenyl)propanoic acid]",800 to 2500
15,CCCCCCCCOc1ccc(-c2cnc(-c3ccc(C[C@H](NC(=O)c4ccc(C(C)(C)C)cc4)C(=O)N[C@H](C)C(=O)O)cc3)nc2)cc1 [Compound 723],800 to 2500
16,CCCCCCCOc1ccc(-c2ccc(-c3ccc(C[C@H](NC(=O)c4ccc(C(C)(C)C)s4)C(=O)N[C@H](C)C(=O)O)cc3)nc2)cc1 [Compound 811],800 to 2500
17,CCOc1ccc(-c2cnc(-c3ccc(C[C@H](NC(=O)c4ccc(C(C)(C)C)cc4)C(=O)N[C@H](C)C(=O)O)cc3)nc2)cc1 [Compound 721],800 to 2500
18,CCCCCCCOc1ccc(-c2cnc(-c3ccc(C[C@H](NC(=O)c4ccc(C(C)(C)C)s4)C(=O)N[C@H](C(=O)O)C(C)(C)C)cc3)nc2)cc1 [Compound 620],5000 to 10000
19,CC(C)(C)c1ccc(C(=O)N[C@@H](Cc2ccc(-c3ncc(-c4ccc(C(F)(F)F)cc4)cn3)cc2)C(=O)N2CC(C(=O)O)C2)s1 [Compound 788],5000 to 10000
20,CC(C)(C)COc1ccc(-c2cnc(-c3ccc(C[C@H](NC(=O)c4ccc(C(C)(C)C)s4)C(=O)N4CC(C(=O)O)C4)cc3)nc2)cc1 [Compound 775],< 800

row,Structure (SMILES),EC50 [nM]
1,CCCCCCCOc1ccc(-c2cnc(-c3ccc(C[C@H](NC(=O)c4ccc(C(C)(C)C)s4)C(=O)N4CCC(C)(C(=O)O)C4)cc3)nc2)cc1 (stereo partly drawn) [Compound 637],800 to 2500
2,CCCCCCCOc1ccc(-c2cnc(-c3ccc(C[C@H](NC(=O)c4ccc(C(C)(C)C)s4)C(=O)N4CC(OC)(C(=O)O)C4)cc3)nc2)cc1 [Compound 873],< 800
3,CCCCCCCOc1ccc(-c2cnc(-c3ccc(C[C@H](NC(=O)c4ccc(C(F)(F)F)s4)C(=O)N[C@H](C)C(=O)O)cc3)nc2)cc1 [Compound 815],< 800
4,CCCCCCCOc1ccc(-c2cnc(-c3ccc(C[C@H](NC(=O)c4ccc(C(=O)c5ccccc5)cc4)C(=O)N[C@H](C)C(=O)O)cc3)nc2)cc1 [Compound 981],2500 to 5000
5,"CCCCCCCOc1ccc(-c2cnc(-c3ccc(C[C@H](NC(=O)c4ccc(C(C)(C)C)s4)C(=O)NS(=O)(=O)CC(=O)OC)cc3)nc2)cc1 [Compound 422, methyl (S)-2-(N-(2-(5-(tert-butyl)thiophene-2-carboxamido)-3-(4-(5-(4-(heptyloxy)phenyl)pyrimidin-2-yl)phenyl)propanoyl)sulfamoyl)acetate]",< 800
6,CC(C)(C)c1ccc(C(=O)N[C@@H](Cc2ccc(-c3ncc(-c4ccc(-c5ccccc5)cc4)cn3)cc2)C(=O)N2CC[C@H](C(=O)O)C2)s1 [Compound 769],5000 to 10000
7,CCCCCCCOc1ccc(-c2cnc(-c3ccc(C[C@H](NC(=O)c4ccc(C(C)(C)C)cc4)C(=O)NC(CC(=O)O)c4ccccc4O)cc3)nc2)cc1 (stereo partly drawn) [Compound 581],800 to 2500
8,CC[C@H]1CC[C@H](c2ccc(-c3cnc(-c4ccc(C[C@H](NC(=O)c5ccc(C6CC6)s5)C(=O)N5CC(C(=O)O)C5)cc4)nc3)cc2)CC1 [Compound 1154],< 800
9,CCCCCCCOc1ccc(-c2cnc(-c3ccc(C[C@H](NC(=O)c4ccc(C(C)(C)C)cc4)C(=O)N[C@@H](CC(=O)Nc4nnn[nH]4)C(=O)O)cc3)nc2)cc1 [Compound 510],2500 to 5000
10,CCCCCCCOc1ccc(-c2cnc(-c3ccc(C[C@H](NC(=O)c4ccc(C(C)(C)C)cc4)C(=O)N4CCC(O)C(C(=O)O)C4)cc3)nc2)cc1 (stereo partly drawn) [Compound 661],< 800
11,COCCCCCOc1ccc(-c2cnc(-c3ccc(C[C@H](NC(=O)c4ccc(C(C)(C)C)cc4)C(=O)NCCC(=O)O)cc3)nc2)cc1 [Compound 471],5000 to 10000
12,CCCCCCCOc1ccc(-c2cnc(-c3ccc(C[C@H](NC(=O)c4ccc(C(C)(C)C#N)cc4)C(=O)N[C@H](C)C(=O)O)cc3)nc2)cc1 [Compound 835],2500 to 5000
13,CCCCCCCOc1ccc(-c2cnc(-c3ccc(C[C@H](NC(=O)c4ccc(C(C)(C)C)cc4)C(=O)NCCC(=O)O)cc3)nc2)cc1C#N [Compound 700],5000 to 10000
14,CCCCCCCOc1ccc(-c2cnc(-c3ccc(C[C@H](NC(=O)c4cnn(C(C)(C)C)c4C)C(=O)N4CCC[C@H]4C(=O)O)cc3)nc2)cc1 [Compound 1079],2500 to 5000
15,"CC(C)CCCOc1ccc(-c2cnc(-c3ccc(C[C@H](NC(=O)c4ccc(C(C)(C)C)s4)C(=O)N4CC(C(=O)O)C4)cc3)nc2)cc1 [Compound 798, (S)-1-(2-(5-(tert-butyl)thiophene-2-carboxamido)-3-(4-(5-(4-((4-methylpentyl)oxy)phenyl)-pyrimidin-2-yl)phenyl)propanoyl)azetidine-3-carboxylic acid]",800 to 2500
16,CCCCCCCOc1ccc(-c2cnc(-c3ccc(C[C@H](NC(=O)c4ccc(C(C)(C)C)s4)C(=O)N[C@@H](CC(=O)O)C(=O)N4CCNCC4)cc3)nc2)cc1 [Compound 534],800 to 2500
17,CCCCCCCOc1ccc(-c2cnc(-c3ccc(C[C@H](NC(=O)c4ccc(C(C)(C)C)s4)C(=O)N4CCCN(C)CC4)cc3)nc2)cc1 [Compound 963],5000 to 10000
18,CCCCCCCOc1ccc(-c2cnc(-c3ccc(C[C@H](NC(=O)c4ccc(C(C)(C)C)cc4)C(=O)N[C@@H](CC(=O)O)C(=O)N(C)C)cc3)nc2)cc1 [Compound 503],800 to 2500
19,CC[C@H]1CC[C@H](c2ccc(-c3cnc(-c4ccc(C[C@H](NC(=O)c5ccc(CC(C)C)s5)C(=O)N5CC(C(=O)O)C5)cc4)nc3)cc2)CC1 [Compound 1152],< 800
20,CCCCCCCOc1ccc(-c2cnc(-c3ccc(CC(NC(=O)c4ccc(C(C)(C)C)s4)C(=O)N[C@H](C(=O)O)[C@@H](C)CC)cc3)nc2)cc1 (stereo partly drawn) [Compound 414],< 800
